Laboratory results from PubChem BioAssay (NCI).
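The compound was tested at five concentrations on cells cultured in 96-well plates, with a 48-hour exposure period. Abbreviation: GI50, concentration required for 50% inhibition of growth. At the TGI there is no net growth.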

Assays:
Test in all cases: NCI tumour cell line growth inhibition, 48 h; in the data active means GI50 below about 0.43 µM; inactive means the rest
786-0 renal = tested on: 786-0 renal
A498 renal = tested on: A498 renal
A549 NSCLC = tested on: A549 NSCLC
ACHN renal = tested on: ACHN renal
CAKI-1 renal = tested on: CAKI-1 renal
CCRF-CEM leukemia = tested on: CCRF-CEM leukemia
COLO 205 colon = tested on: COLO 205 colon
DU-145 prostate = tested on: DU-145 prostate
EKVX NSCLC = tested on: EKVX NSCLC
HCC-2998 colon = tested on: HCC-2998 colon
HCT-116 colon = tested on: HCT-116 colon
HCT-15 colon = tested on: HCT-15 colon
HL-60(TB) leukemia = tested on: HL-60(TB) leukemia
HOP-62 NSCLC = tested on: HOP-62 NSCLC
HS 578T breast = tested on: HS 578T breast
HT29 colon = tested on: HT29 colon
IGROV1 ovarian = tested on: IGROV1 ovarian
K-562 leukemia = tested on: K-562 leukemia
KM12 colon = tested on: KM12 colon
LOX IMVI melanoma = tested on: LOX IMVI melanoma
M14 melanoma = tested on: M14 melanoma
MALME-3M melanoma = tested on: MALME-3M melanoma
MCF7 breast = tested on: MCF7 breast
MDA-MB-231 breast = tested on: MDA-MB-231 breast
MDA-MB-435 = tested on: MDA-MB-435
MOLT-4 leukemia = tested on: MOLT-4 leukemia
NCI-H226 lung = tested on: NCI-H226 lung
NCI-H23 lung = tested on: NCI-H23 lung
NCI-H460 lung = tested on: NCI-H460 lung
NCI-H522 lung = tested on: NCI-H522 lung
NCI/ADR-RES ovarian = tested on: NCI/ADR-RES ovarian
OVCAR-3 ovarian = tested on: OVCAR-3 ovarian
OVCAR-4 ovarian = tested on: OVCAR-4 ovarian
OVCAR-5 ovarian = tested on: OVCAR-5 ovarian
OVCAR-8 ovarian = tested on: OVCAR-8 ovarian
RPMI-8226 leukemia = tested on: RPMI-8226 leukemia
RXF 393 renal = tested on: RXF 393 renal
SF-268 CNS = tested on: SF-268 CNS
SF-295 CNS = tested on: SF-295 CNS
SF-539 CNS = tested on: SF-539 CNS
SK-MEL-2 melanoma = tested on: SK-MEL-2 melanoma
SK-MEL-28 melanoma = tested on: SK-MEL-28 melanoma
SK-MEL-5 melanoma = tested on: SK-MEL-5 melanoma
SK-OV-3 ovarian = tested on: SK-OV-3 ovarian
SN12C renal = tested on: SN12C renal
SNB-19 CNS = tested on: SNB-19 CNS
SNB-75 CNS = tested on: SNB-75 CNS
SR leukemia = tested on: SR leukemia
SW-620 colon = tested on: SW-620 colon
TK-10 renal = tested on: TK-10 renal
U251 CNS = tested on: U251 CNS
UACC-257 melanoma = tested on: UACC-257 melanoma
UACC-62 melanoma = tested on: UACC-62 melanoma
UO-31 renal = tested on: UO-31 renal
PC-3 prostate = tested on: PC-3 prostate

COc1ccc2cc(C#Cc3ccc(-n4c(/C=C/c5cc(OC)c(OC)c(OC)c5)nc5ccccc5c4=O)c(C)c3)ccc2c1
> 100 µM: TGI (786-0 renal) | TGI (A498 renal) | TGI (A549 NSCLC) | TGI (ACHN renal) | TGI (CAKI-1 renal) | TGI (CCRF-CEM leukemia) | TGI (COLO 205 colon) | TGI (DU-145 prostate) | TGI (EKVX NSCLC) | TGI (HCC-2998 colon) | TGI (HCT-116 colon) | TGI (HCT-15 colon) | TGI (HL-60(TB) leukemia) | TGI (HOP-62 NSCLC) | TGI (HS 578T breast) | TGI (HT29 colon) | TGI (IGROV1 ovarian) | TGI (K-562 leukemia) | TGI (KM12 colon) | TGI (LOX IMVI melanoma) | TGI (M14 melanoma) | TGI (MALME-3M melanoma) | TGI (MCF7 breast) | TGI (MDA-MB-231 breast) | TGI (MDA-MB-435) | TGI (MOLT-4 leukemia) | TGI (NCI-H226 lung) | TGI (NCI-H23 lung) | TGI (NCI-H460 lung) | TGI (NCI-H522 lung) | TGI (NCI/ADR-RES ovarian) | TGI (OVCAR-3 ovarian) | TGI (OVCAR-4 ovarian) | TGI (OVCAR-5 ovarian) | TGI (OVCAR-8 ovarian) | TGI (RPMI-8226 leukemia) | TGI (RXF 393 renal) | TGI (SF-268 CNS) | TGI (SF-295 CNS) | TGI (SF-539 CNS) | TGI (SK-MEL-2 melanoma) | TGI (SK-MEL-28 melanoma) | TGI (SK-MEL-5 melanoma) | TGI (SK-OV-3 ovarian) | TGI (SN12C renal) | TGI (SNB-19 CNS) | TGI (SNB-75 CNS) | TGI (SR leukemia) | TGI (SW-620 colon) | TGI (TK-10 renal) | TGI (U251 CNS) | TGI (UACC-257 melanoma) | TGI (UACC-62 melanoma) | TGI (UO-31 renal)
active: GI50 (SR leukemia) 0.395 µM
inactive: GI50 (786-0 renal) > 100 µM | GI50 (A498 renal) > 100 µM | GI50 (A549 NSCLC) > 100 µM | GI50 (ACHN renal) > 100 µM | GI50 (CAKI-1 renal) 4.91 µM | GI50 (CCRF-CEM leukemia) > 100 µM | GI50 (COLO 205 colon) 6.96 µM | GI50 (DU-145 prostate) > 100 µM | GI50 (EKVX NSCLC) 24.1 µM | GI50 (HCC-2998 colon) > 100 µM | GI50 (HCT-116 colon) 3.53 µM | GI50 (HCT-15 colon) 1.22 µM | GI50 (HL-60(TB) leukemia) 0.686 µM | GI50 (HOP-62 NSCLC) > 100 µM | GI50 (HS 578T breast) > 100 µM | GI50 (HT29 colon) 3.41 µM | GI50 (IGROV1 ovarian) > 100 µM | GI50 (K-562 leukemia) 0.882 µM | GI50 (KM12 colon) 4.3 µM | GI50 (LOX IMVI melanoma) 5.94 µM | GI50 (M14 melanoma) 12.7 µM | GI50 (MALME-3M melanoma) 42.6 µM | GI50 (MCF7 breast) 63.8 µM | GI50 (MDA-MB-231 breast) 37 µM | GI50 (MDA-MB-435) > 100 µM | GI50 (MOLT-4 leukemia) 4.66 µM | GI50 (NCI-H226 lung) > 100 µM | GI50 (NCI-H23 lung) 40.5 µM | GI50 (NCI-H460 lung) 2.48 µM | GI50 (NCI-H522 lung) > 100 µM | GI50 (NCI/ADR-RES ovarian) > 100 µM | GI50 (OVCAR-3 ovarian) 19.3 µM | GI50 (OVCAR-4 ovarian) > 100 µM | GI50 (OVCAR-5 ovarian) > 100 µM | GI50 (OVCAR-8 ovarian) > 100 µM | GI50 (RPMI-8226 leukemia) 0.821 µM | GI50 (RXF 393 renal) > 100 µM | GI50 (SF-268 CNS) > 100 µM | GI50 (SF-295 CNS) > 100 µM | GI50 (SF-539 CNS) > 100 µM | GI50 (SK-MEL-2 melanoma) > 100 µM | GI50 (SK-MEL-28 melanoma) > 100 µM | GI50 (SK-MEL-5 melanoma) 1.85 µM | GI50 (SK-OV-3 ovarian) > 100 µM | GI50 (SN12C renal) > 100 µM | GI50 (SNB-19 CNS) > 100 µM | GI50 (SNB-75 CNS) > 100 µM | GI50 (SW-620 colon) 17.2 µM | GI50 (TK-10 renal) > 100 µM | GI50 (U251 CNS) 7.4 µM | GI50 (UACC-257 melanoma) 6.24 µM | GI50 (UACC-62 melanoma) 2.19 µM | GI50 (UO-31 renal) > 100 µM

Cc1ncc([N+](=O)[O-])n1CCn1ccnc1[N+](=O)[O-]
29 µM: TGI (TK-10 renal)
> 100 µM: TGI (786-0 renal) | TGI (A498 renal) | TGI (A549 NSCLC) | TGI (ACHN renal) | TGI (CCRF-CEM leukemia) | TGI (EKVX NSCLC) | TGI (HCC-2998 colon) | TGI (HCT-116 colon) | TGI (HCT-15 colon) | TGI (HL-60(TB) leukemia) | TGI (HOP-62 NSCLC) | TGI (HS 578T breast) | TGI (HT29 colon) | TGI (K-562 leukemia) | TGI (KM12 colon) | TGI (MALME-3M melanoma) | TGI (MCF7 breast) | TGI (MOLT-4 leukemia) | TGI (NCI-H226 lung) | TGI (NCI-H23 lung) | TGI (NCI-H460 lung) | TGI (NCI-H522 lung) | TGI (OVCAR-3 ovarian) | TGI (OVCAR-5 ovarian) | TGI (OVCAR-8 ovarian) | TGI (PC-3 prostate) | TGI (RPMI-8226 leukemia) | TGI (SF-268 CNS) | TGI (SF-295 CNS) | TGI (SF-539 CNS) | TGI (SK-MEL-2 melanoma) | TGI (SK-MEL-28 melanoma) | TGI (SK-MEL-5 melanoma) | TGI (SN12C renal) | TGI (SNB-75 CNS) | TGI (SR leukemia) | TGI (SW-620 colon) | TGI (U251 CNS) | TGI (UACC-257 melanoma)
